A word on the IC50: it is the concentration needed to halve the response being measured. Low values mean greater potency, high ones weaker potency.

Assay [1] has as its target Cbl-b (Homo sapiens (Human), UniProt Q13191). Kind of assay: Cbl-b LCK Ub TR-FRET assay (Cbl-b Lck HTRF). In kind it is biochemical. The essentials:
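TR-FRET (340 nm excitation, 615/665 nm emission) read after adding HA-ubiquitin–UBE2D2 thioester, anti-HA-D2 and streptavidin-Eu. Beforehand, compounds incubated 60 min with biotinylated Cbl-b, then 90 min with His-LCK and ATP (1 mM in 2× mix); IC50 from 10 concentrations, DMSO high and no-LCK low controls.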
Background: TR-FRET usually uses a lanthanide donor and a delayed reading to cut background.

For assay [2], the target named is c-Cbl (Homo sapiens (Human), UniProt P22681). Kind of assay: C-Cbl LCK Ub TR-FRET assay (c-cbl Lck HTRF). In kind it is biochemical. The note with it: for (fold-selectivity): C-cbl Lck HTRF IC50 relative to Cbl-b Lck HTRF IC50. The essentials:
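Signal is read once the detection mix has stood 20 min at ambient temperature. Curves are anchored by DMSO as maximum and by omission of LCK as minimum.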

Cbl-b, sequence (Q13191 40-426): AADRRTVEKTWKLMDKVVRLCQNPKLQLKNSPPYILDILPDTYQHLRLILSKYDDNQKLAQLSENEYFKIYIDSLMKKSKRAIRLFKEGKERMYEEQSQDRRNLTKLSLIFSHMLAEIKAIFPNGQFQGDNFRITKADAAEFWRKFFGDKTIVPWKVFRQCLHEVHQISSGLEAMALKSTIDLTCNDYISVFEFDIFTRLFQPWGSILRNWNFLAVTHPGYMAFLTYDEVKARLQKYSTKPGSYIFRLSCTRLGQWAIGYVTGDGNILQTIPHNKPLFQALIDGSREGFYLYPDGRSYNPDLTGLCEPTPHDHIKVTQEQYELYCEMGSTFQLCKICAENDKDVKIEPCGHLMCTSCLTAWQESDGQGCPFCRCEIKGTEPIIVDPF
c-Cbl, sequence (P22681 47-435): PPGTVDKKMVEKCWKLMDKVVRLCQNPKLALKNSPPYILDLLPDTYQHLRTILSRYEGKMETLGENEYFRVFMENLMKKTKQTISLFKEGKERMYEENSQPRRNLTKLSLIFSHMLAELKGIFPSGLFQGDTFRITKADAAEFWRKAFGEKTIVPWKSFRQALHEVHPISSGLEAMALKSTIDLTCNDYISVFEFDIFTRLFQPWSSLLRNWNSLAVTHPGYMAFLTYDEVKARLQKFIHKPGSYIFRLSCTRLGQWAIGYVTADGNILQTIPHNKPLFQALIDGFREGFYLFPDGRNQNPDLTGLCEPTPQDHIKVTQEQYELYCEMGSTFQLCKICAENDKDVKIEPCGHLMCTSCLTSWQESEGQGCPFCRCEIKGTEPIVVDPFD

For the compound `CO[C@H]1CCN(Cc2cc3c(c(C(F)(F)F)c2)CN(c2cccc(C4([C@H](F)c5nncn5C)COC4)c2)C3=O)C1` [Compound 132, 2-(3-(3-((S)-fluoro(4-methyl-4H-1,2,4-triazol-3-yl)methyl)oxetan-3-yl)phenyl)-6-(((S)-3-methoxypyrrolidin-1-yl)methyl)-4-(trifluoromethyl)isoindolin-1-one], it took 230 nM to reach half-maximal inhibition in assay [1] (IC50). In addition, in assay [2], it took 470 nM to reach half-maximal inhibition (IC50) and the “(fold-selectivity)” value turned out to be 2.1x.
Turning to `CC(C)[C@H]1CN(C2COC2)CCN1Cc1cc2c(c(C(F)(F)F)c1)CN(c1cccc(C3([C@H](F)c4nncn4C)COC3)c1)C2=O` [Compound 199, 2-(3-(3-((S)-fluoro(4-methyl-4H-1,2,4-triazol-3-yl)methyl)oxetan-3-yl)phenyl)-6-(((S)-2-isopropyl-4-(oxetan-3-yl)piperazin-1-yl)methyl)-4-(trifluoromethyl)isoindolin-1-one], the IC50 in assay [1] was 19 nM. In addition, in assay [2], half-maximal inhibition (IC50) required 56 nM and the “(fold-selectivity)” value turned out to be 2.9x.
`Cc1cnnn1CC1(c2cccc(N3Cc4c(cc(CNC5(C)CCC5)cc4C(F)F)C3=O)c2)COC1` [Compound 305, 4-(difluoromethyl)-2-(3-(3-((5-methyl-1H-1,2,3-triazol-1-yl)methyl)oxetan-3-yl)phenyl)-6-(((1-methylcyclobutyl)amino)methyl) isoindolin-1-one]: 39 nM corresponded to half-maximal inhibition in assay [1] (IC50). Besides, in assay [2], the half-maximal inhibitory concentration (IC50) was 49 nM and the “(fold-selectivity)” value was “(1.3x)”.
For `Cn1cnnc1[C@@H](F)C1(c2cccc(N3Cc4c(cc(CN5CCC[C@H]5CO)cc4C(F)(F)F)C3=O)c2)COC1` [Compound 150, 2-(3-(3-((S)-fluoro(4-methyl-4H-1,2,4-triazol-3-yl)methyl)oxetan-3-yl)phenyl)-6-(((S)-2-(hydroxymethyl)pyrrolidin-1-yl)methyl)-4-(trifluoromethyl)isoindolin-1-one] the same measures were 1400 nM, 1500 nM and 1.1x.
For `CC(C)[C@H]1CN(C2COC2)CCN1Cc1cc2c(c(C(F)(F)F)c1)CN(c1cccc(C3([C@@H](F)c4nncn4C)COC3)c1)C2=O` [Compound 200, 2-(3-(3-((R)-fluoro(4-methyl-4H-1,2,4-triazol-3-yl)methyl)oxetan-3-yl)phenyl)-6-(((S)-2-isopropyl-4-(oxetan-3-yl)piperazin-1-yl)methyl)-4-(trifluoromethyl)isoindolin-1-one], inhibition in assay [1] was half-maximal at 27 nM (IC50). In assay [2], the IC50 is 39 nM and the “(fold-selectivity)” value is given as 1.5x.
For `Cn1cnnc1[C@@H](F)C1(c2cccc(N3Cc4c(cc(CN5CC(C)(C)C5)cc4C(F)(F)F)C3=O)c2)COC1` [Compound 73, (S)-6-((3,3-dimethylazetidin-1-yl)methyl)-2-(3-(3-(fluoro(4-methyl-4H-1,2,4-triazol-3-yl)methyl)oxetan-3-yl)phenyl)-4-(trifluoromethyl)isoindolin-1-one] the same measures were 140 nM, 300 nM and 2.2x.
For `Cn1cnnc1[C@H](F)C1(c2cccc(N3Cc4c(cc(CN5CCC[C@H](CO)C5)cc4C(F)(F)F)C3=O)c2)COC1` [Compound 143, 2-(3-(3-((R)-fluoro(4-methyl-4H-1,2,4-triazol-3-yl)methyl)oxetan-3-yl)phenyl)-6-(((S)-3-(hydroxymethyl)piperidin-1-yl)methyl)-4-(trifluoromethyl)isoindolin-1-one] the same measures were 29 nM, 27 nM and 0.92x.
For `COCC1(O)CN(Cc2cc3c(c(C(F)(F)F)c2)CN(c2cccc(C4([C@@H](F)c5nncn5C)COC4)c2)C3=O)C1` [Compound 185, (R)-2-(3-(3-(fluoro(4-methyl-4H-1,2,4-triazol-3-yl)methyl)oxetan-3-yl)phenyl)-6-((3-hydroxy-3-(methoxymethyl)azetidin-1-yl)methyl)-4-(trifluoromethyl)isoindolin-1-one] the same measures were 72 nM, 110 nM and 1.5x.

These data come from patent publication US20250230147A1, “LACTAMS AS CBL-B INHIBITORS” (Genentech, Inc., priority 2021, published 2025).
